Assay results reported in publication PMC4467461, “Small-molecule activation of SERCA2a SUMOylation for the treatment of heart failure” (Nature Communications, 2015).
Entries after “also recorded” stand apart in the source; their conditions may differ.

Tested on: SERCA2a SUMOylation
Assay: Endogenous SERCA2a SUMOylation, SUMO-1 conjugates and Ubc9 in cardiomyocytes (immunoprecipitation / western blot)
Type: cell-based, Sprague–Dawley rats
Method: Figure 1 N106 increases SERCA2a’s cellular activity and SUMOylation in adult cardiomyocytes. In-vitro characterization of activators of SERCA2a SUMOylation. Cell-based screening of small molecules identified one promising compound. Adult ventricular cardiomyocytes were isolated from Sprague–Dawley rats and treated with small molecules on dose-dependent manner for 24 h. DMSO-treated cardiomyocytes were used as a negative control. (a) Chemical structure of SERCA2a SUMOylation activator. N106, N-(4-methoxybenzo[d]thiazol-2-yl)-5-(4-methoxyphenyl)-1,3,4-oxadiazol-2-amine. (b-g) The effects of N106 compound in cardiomyocyte contractility and calcium transient. The dose-dependent effects of N106 compound presented on peak shortening, the time to maximal departure velocity, the time to maximal return velocity, calcium ratio, decay time constant (τ) and the time to 90% baseline (t90) fluorescence in cardiomyocytes were assessed using a video-based edge-detection system (IonOptix Inc.). n=25 cardiomyocytes from each three of hearts per condition. (h) The effects of N106 compound on the ATPase activity of SERCA2a. The ATPase activity were measured at 25 °C in 50 mM MOPS, 100 mM KCl, 5 mM MgCl2, 1 mM […] at pCa 5.0 by using a coupled enzyme system consisting of pyruvate kinase and lactate dehydrogenase, and monitoring the oxidation of the reduced form of NADH at […]. The enzyme activity was determined by using same set of cardiomyocytes. (i) The effect of N106 compound for the formation of SUMOylated SERCA2a was determined using the same set of cardiomyocytes. Endogenous SERCA2a SUMOylation was detected by immunoprecipitation with anti-SERCA2a and then western blotting with anti-SUMO-1 antibodies. The experiments shown are representative of three independent experiments with similar results. (j) The effect of N106 compound on global SUMOylation was measured by western blot analysis with an anti-SUMO-1 antibody in the same set of cardiomyocytes. The experiments shown are representative of three independent western blottings. Data are represented as mean±s.e.m. (n=3 mice hearts per each condition). Data are represented as mean±s.e.m. *P≤0.05; **P<0.001 (Student’s t-test) from DMSO control.
Protein extracts (20∼50 μg) were obtained from isolated cardiomyocytes, which was lysed in RIPA buffer (R&D Systems Inc., MN, USA) contained protease inhibitors (Complete mini, Roche Diagnostics, IN, USA) and 20 mM NEM (Sigma-Aldrich). For SERCA2a SUMOylation assays, cardiac protein extracts were immunoprecipitated with a SUMO-1 agarose resin (Santa Cruz Biotechnology Inc., CA, USA) for overnight at 4 °C. The resins were washed with cold lysis buffer three times. The immunocomplexes were then resolved by SDS–PAGE and western blot analysis was performed using a SERCA2a-specific antibody. […]
treated with small molecules were determined: peak shortening (b) and calcium transient (c). […]

Question: Which “endogenous SERCA2a SUMOylation” value (10 μM, 24 h) does the source give for COc1ccc(-c2nnc(Nc3nc4c(OC)cccc4s3)o2)cc1 [Compound N106, N-(4-methoxybenzo[d]thiazol-2-yl)-5-(4-methoxyphenyl)-1,3,4-oxadiazol-2-amine] here?
Answer: Its value is “enhancement of endogenous SERCA2a SUMOylation; also recorded: significantly induced”.

Question: And the “protein levels of E2 conjugation enzyme, Ubc9” value (10 μM, 24 h)?
Answer: Its value is “without upregulation of Ubc9”.

Question: What about the “SERCA2a SUMOylation, time course” value (10 μM, 10∼30 min, sustained at 24 h) of the same compound?
Answer: The value was “increased”.

Question: And the “whole SUMO-1 conjugates” value (in response to the concentration of N106, 24 h)?
Answer: Its value is “increased”.

Question: And the “levels of SERCA2a SUMOylation” value (increasing N106 concentration, 24 h)?
Answer: Its value is “increased”.
